Consider 35 molecules from patent US10316035B2, “Triazolopyridine inhibitors of myeloperoxidase” (BRISTOL-MYERS SQUIBB COMPANY, priority 2015, dated 2019).

SMILES strings stand for the structures. Where a name gives a salt, the structure may show the parent alone.

One test concerns the target T1, myeloperoxidase (MPO) (Homo sapiens, UniProt P05164).
T1 sequence (P05164 49-745): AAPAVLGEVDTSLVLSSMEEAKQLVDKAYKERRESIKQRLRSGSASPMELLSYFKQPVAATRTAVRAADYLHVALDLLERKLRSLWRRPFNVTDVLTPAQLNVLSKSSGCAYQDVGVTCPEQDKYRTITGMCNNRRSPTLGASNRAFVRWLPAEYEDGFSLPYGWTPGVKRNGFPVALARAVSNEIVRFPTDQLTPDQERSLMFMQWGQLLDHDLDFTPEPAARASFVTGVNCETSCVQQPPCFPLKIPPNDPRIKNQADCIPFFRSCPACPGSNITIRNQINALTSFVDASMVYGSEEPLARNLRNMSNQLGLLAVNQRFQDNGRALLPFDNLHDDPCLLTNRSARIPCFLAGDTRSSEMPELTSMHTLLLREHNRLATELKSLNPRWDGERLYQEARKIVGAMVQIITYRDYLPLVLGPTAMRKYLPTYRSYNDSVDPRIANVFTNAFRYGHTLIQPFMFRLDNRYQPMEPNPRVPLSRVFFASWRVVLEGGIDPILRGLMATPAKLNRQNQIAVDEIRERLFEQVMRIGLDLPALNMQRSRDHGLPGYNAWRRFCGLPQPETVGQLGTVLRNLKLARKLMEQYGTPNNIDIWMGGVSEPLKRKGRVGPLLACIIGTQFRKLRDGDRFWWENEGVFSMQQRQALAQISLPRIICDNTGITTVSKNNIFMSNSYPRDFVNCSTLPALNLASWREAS
Briefly: MPO peroxidation assay (Amplex Red assay). The class given is biochemical.
Conditions: not given
The essentials: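 Peroxidase turnover of Amplex Red to fluorescent resorufin (Ex 535/Em 590 nm) was followed for 15 min in 100 mM KPi, pH 7.4, after 10 min room-temperature preincubation of compound with 200 pM enzyme plus 40 nM H2O2. The substrate mix contained 200 μM Amplex Red and 10 mM H2O2. IC50s came from linear-phase rates (180–540 s) fitted with a Hill equation.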
For orientation: IC50 means the midpoint of a concentration-inhibition curve. With `CS(=O)(=O)c1ccccc1COc1cc(N)nc2[nH]nnc12` [Example 232, 7-((2-(Methylsulfonyl)benzyl)oxy)-3H-[1,2,3]triazolo[4,5-b]pyridin-5-amine], the IC50 is 101 to 999 nM.
For the molecule `Nc1cc(OCc2ccccc2-n2cccn2)c2nn[nH]c2n1` [Example 255, 7-((2-(1H-Pyrazol-1-yl)benzyl)oxy)-3H-[1,2,3]triazolo[4,5-b]pyridin-5-amine], the 50% inhibitory concentration (IC50) was in the range of 101 to 999 nM.

Still in this test, the particulars now being: MPO peroxidation, potency range class; read-out: Amplex Red IC50.
With `NC(=O)C1CCN(C(=O)c2ccc(COc3cc(N)nc4[nH]nnc34)c(Cl)c2)CC1` [Example 220, 1-(4-((5-amino-3H-[1,2,3]triazolo [4,5-b]pyridin-7-yloxy)methyl)-3-chlorobenzoyl)piperidine-4-carboxamide], the IC50 lay in the range of 101 to 999 nM.
Still for that read-out and setting: in the case of `Nc1cc(OCc2ccc(C(=O)NC3CCCCC3)cc2Cl)c2nn[nH]c2n1` [Example 221, 4-((5-amino-3H-[1,2,3]triazolo[4,5-b]pyridin-7-yloxy)methyl)-3-chloro-N-cyclohexylbenzamide] it was 1 to 100 nM.
Still for that read-out and setting: in the case of `CN(C)CCN(C)C(=O)c1ccc(COc2cc(N)nc3[nH]nnc23)c(Cl)c1` [Example 222, 4-((5-amino-3H-[1,2,3]triazolo[4,5-b]pyridin-7-yloxy)methyl)-3-chloro-N-(2-(dimethylamino)ethyl)-N-methylbenzamide] it was 101 to 999 nM; in that of `CN(C(=O)c1ccc(COc2cc(N)nc3[nH]nnc23)c(Cl)c1)C1CCCCC1` [Example 223, 4-((5-amino-3H-[1,2,3]triazolo[4,5-b]pyridin-7-yloxy)methyl)-3-chloro-N-cyclohexyl-N-methylbenzamide], 101 to 999 nM.
Consider `Nc1cc(OCc2ccc(C(=O)NCCc3c[nH]cn3)cc2Cl)c2nn[nH]c2n1` [Example 224, N-(2-(1H-imidazol-4-yl)ethyl)-4-((5-amino-3H-[1,2,3]triazol[4,5-b]pyridin-7-yloxy)methyl)-3-chlorobenzamide], for which the IC50 was 1 to 100 nM.
Consider `CS(=O)(=O)c1cccc(Cl)c1COc1cc(N)nc2[nH]nnc12` [Example 225, 7-(2-Chloro-6-(methylsulfonyl)benzyloxy)-3H-[1,2,3]triazolo[4,5-b]pyridin-5-amine], for which the IC50 fell in the range of 1 to 100 nM.
Same read-out and setting: the figure for `CCS(=O)(=O)c1ccc(Cl)cc1COc1cc(N)nc2[nH]nnc12` [Example 227, 7-((5-Chloro-2-(ethylsulfonyl)benzyl)oxy)-3H-[1,2,3]triazolo[4,5-b]pyridin-5-amine, TFA] is 101 to 999 nM; for `Nc1cc(OCc2cc(Cl)ccc2S(=O)(=O)Cc2ccccc2)c2nn[nH]c2n1` [Example 228, 7-((2-(Benzylsulfonyl)-5-chlorobenzyl)oxy)-3H-[1,2,3]triazolo[4,5-b]pyridin-5-amine, TFA] it is 101 to 999 nM; for `CNS(=O)(=O)c1ccccc1COc1cc(N)nc2[nH]nnc12` [Example 229, 2-(((5-Amino-3H-[1,2,3]triazolo[4,5-b]pyridin-7-yl)oxy)methyl)-N-methylbenzenesulfonamide, TFA] it is 101 to 999 nM.
For the molecule `Nc1cc(OCc2ccccc2S(N)(=O)=O)c2nn[nH]c2n1` [Example 230, 2-(((5-Amino-3H-[1,2,3]triazolo[4,5-b]pyridin-7-yl)oxy)methyl)benzenesulfonamide, TFA], the IC50 was 101 to 999 nM.
Same read-out and setting: in the case of `CS(=O)(=O)c1cc(Br)ccc1COc1cc(N)nc2[nH]nnc12` [Example 231, 7-((4-Bromo-2-(methylsulfonyl)benzyl)oxy)-3H-[1,2,3]triazolo[4,5-b]pyridin-5-amine, TFA] it was 1 to 100 nM.
The same measure, in the same setting: in the case of `Nc1cc(OCc2c(F)cc(Br)cc2F)c2nn[nH]c2n1` [Example 233, 7-((4-Bromo-2,6-difluorobenzyl)oxy)-3H-[1,2,3]triazolo[4,5-b]pyridin-5-amine, TFA] it was 1 to 100 nM; in that of `Nc1cc(OCc2c(F)ccc(Br)c2Cl)c2nn[nH]c2n1` [Example 235, 7-((3-Bromo-2-chloro-6-fluorobenzyl)oxy)-3H-[1,2,3]triazolo[4,5-b]pyridin-5-amine], 1 to 100 nM; in that of `Nc1cc(OCc2c(F)ccc(Br)c2F)c2nn[nH]c2n1` [Example 236, 7-((3-Bromo-2,6-difluorobenzyl)oxy)-3H-[1,2,3]triazolo[4,5-b]pyridin-5-amine], 1 to 100 nM.
Same read-out and setting: in the case of `Nc1cc(OCc2c(F)cccc2Cl)c2nn[nH]c2n1` [Example 237, 7-((2-Chloro-6-fluorobenzyl)oxy)-3H-[1,2,3]triazolo[4,5-b]pyridin-5-amine] it was 1 to 100 nM; in that of `Nc1cc(OCc2ccccc2OC(F)F)c2nn[nH]c2n1` [Example 238, 7-((2-(Difluoromethoxy)benzyl)oxy)-3H-[1,2,3]triazolo[4,5-b]pyridin-5-amine], 1 to 100 nM; in that of `Nc1cc(OCc2ccccc2C(F)(F)F)c2nn[nH]c2n1` [Example 239, 7-((2-(Trifluoromethyl)benzyl)oxy)-3H-[1,2,3]triazolo[4,5-b]pyridin-5-amine], 1 to 100 nM.
Turning to `Nc1cc(OCc2ccc(Br)cc2OC(F)(F)F)c2nn[nH]c2n1` [Example 240, 7-((4-Bromo-2-(trifluoromethoxy)benzyl)oxy)-3H-[1,2,3]triazolo[4,5-b]pyridin-5-amine], the IC50 fell in the range of 1 to 100 nM.
The same measure, in the same setting: the figure for `Nc1cc(OCc2cc(Cl)ccc2C(F)(F)F)c2nn[nH]c2n1` [Example 241, 7-((5-Chloro-2-(trifluoromethyl)benzyl)oxy)-3H-[1,2,3]triazolo[4,5-b]pyridin-5-amine] is 1 to 100 nM; for `COc1cc(-n2cccn2)ccc1COc1cc(N)nc2[nH]nnc12` [Example 243, 7-((2-Methoxy-4-(1H-pyrazol-1-yl)benzyl)oxy)-3H-[1,2,3]triazolo[4,5-b]pyridin-5-amine] it is 1 to 100 nM; for `Nc1cc(OCc2ccc(-n3ccnc3)cc2OC(F)(F)F)c2nn[nH]c2n1` [Example 244, 7-((4-(1H-Imidazol-1-yl)-2-(trifluoromethoxy)benzyl)oxy)-3H-[1,2,3]triazolo[4,5-b]pyridin-5-amine] it is 1 to 100 nM.
Still for that read-out and setting: in the case of `N#Cc1cc(Br)ccc1COc1cc(N)nc2[nH]nnc12` [Example 245, 2-(((5-Amino-3H-[1,2,3]triazolo[4,5-b]pyridin-7-yl)oxy)methyl)-5-bromobenzonitrile] it was 1 to 100 nM; in that of `CS(=O)(=O)c1ccc(COc2cc(N)nc3[nH]nnc23)c(Cl)c1` [Example 246, 7-((2-chloro-4-(methylsulfonyl)benzyl)oxy)-3H-[1,2,3]triazolo[4,5-b]pyridin-5-amine], 101 to 999 nM; in that of `N#Cc1ccccc1COc1cc(N)nc2[nH]nnc12` [Example 247, 2-(((5-amino-3H-[1,2,3]triazolo[4,5-b]pyridin-7-yl)oxy)methyl)benzonitrile], 1 to 100 nM.
The same measure, in the same setting: the figure for `Nc1cc(OCc2cccc(SC(F)(F)F)c2)c2nn[nH]c2n1` [Example 248, 7-((3-((trifluoromethyl)thio)benzyl)oxy)-3H-[1,2,3]triazolo[4,5-b]pyridin-5-amine] is 1 to 100 nM.
`Nc1cc(OCc2cc([N+](=O)[O-])ccc2Cl)c2nn[nH]c2n1` [Example 249, 7-((2-chloro-5-nitrobenzyl)oxy)-3H-[1,2,3]triazolo[4,5-b]pyridin-5-amine]: the 50% inhibitory concentration (IC50) was in the range of 1 to 100 nM.
Still for that read-out and setting: in the case of `CS(=O)(=O)c1ccc(COc2cc(N)nc3[nH]nnc23)c([N+](=O)[O-])c1` [Example 250, 7-((4-(methylsulfonyl)-2-nitrobenzyl)oxy)-3H-[1,2,3]triazolo[4,5-b]pyridin-5-amine] it was 101 to 999 nM; in that of `Cc1nc(-c2ccc(COc3cc(N)nc4[nH]nnc34)c(F)c2)no1` [Example 251, 7-((2-fluoro-4-(5-methyl-1,2,4-oxadiazol-3-yl)benzyl)oxy)-3H-[1,2,3]triazolo[4,5-b] pyridin-5-amine], 1 to 100 nM.
Take `COc1cc(Cl)c(Cl)cc1COc1cc(N)nc2[nH]nnc12` [Example 252, 7-((4,5-Dichloro-2-methoxybenzyl)oxy)-3H-[1,2,3]triazolo[4,5-b]pyridin-5-amine]: the IC50 was in the range of 1 to 100 nM.
`Nc1cc(OCc2ccccc2-n2cncn2)c2nn[nH]c2n1` [Example 253, 7-((2-(1H-1,2,4-Triazol-1-yl)benzyl)oxy)-3H-[1,2,3]triazolo[4,5-b]pyridin-5-amine]: the concentration for half-maximal inhibition (IC50) lay within 101 to 999 nM.
Same read-out and setting: in the case of `Nc1cc(OCc2ccc(-n3ccccc3=O)cc2OC(F)(F)F)c2nn[nH]c2n1` [Example 256, 1-(4-(((5-amino-3H-[1,2,3]triazolo[4,5-b]pyridin-7-yl)oxy)methyl)-3-(trifluoromethoxy)phenyl) pyridin-2(1H)-one] it was 101 to 999 nM; in that of `Nc1cc(OCc2ccc(-n3cccn3)cc2OC(F)(F)F)c2nn[nH]c2n1` [Example 257], 1 to 100 nM.
For the molecule `Nc1cc(OCc2ccc(-n3ncc4ccccc43)cc2OC(F)(F)F)c2nn[nH]c2n1` [Example 258, 7-((4-(1H-indazol-1-yl)-2-(trifluoromethoxy)benzyl)oxy)-3H-[1,2,3]triazolo[4,5-b]pyridin-5-amine], the IC50 was 1 to 100 nM.
